In the Deep4Chem optical property database:
“And” between values parts separate entries of the source, which are not always exact repeats. Equal values may be shown once.

Experiment: solvent given as SMILES

For CCCCCCC1(CCCCCC)c2cc(-c3ccc(-c4ccc(-c5ccc(-c6ccc7c(c6)C(CCCCCC)(CCCCCC)c6cc(-n8c9ccc(-n%10c%11ccccc%11c%11ccccc%11%10)cc9c9cc(-n%10c%11ccccc%11c%11ccccc%11%10)ccc98)ccc6-7)s5)c5nsnc45)s3)ccc2-c2ccc(-n3c4ccc(-n5c6ccccc6c6ccccc65)cc4c4cc(-n5c6ccccc6c6ccccc65)ccc43)cc21, the emission maximum (in ClCCl) was 608 nm.

Molecule c1ccc(-c2nc(-c3ccc(-c4ccc(-n5c6ccccc6c6ccccc65)cc4)cn3)oc2-c2ccccc2)cc1 has an emission maximum (in C1CCOC1) of 411 nm, an emission maximum (in C1COCCO1) of 406 nm and an emission maximum (in CC#N) of 415 nm. It also gave an emission maximum (in CC(C)=O) of 413 nm, an emission maximum (in CC(C)OC(C)C) of 398 nm and an emission maximum (in CCCCCC) of 392 nm. It also gave an emission maximum (in CCCCOCCCC) of 399 nm, an emission maximum (in CCN(CC)CC) of 396 nm and an emission maximum (in CCOC(C)=O) of 408 nm. For the same molecule, the emission maximum (in CCOCC) was 400 nm, the emission maximum (in Cc1ccccc1) was 404 nm and the emission maximum (in c1ccccc1) was 405 nm.

With C[Si](C)(C)c1ccc2ccc3c([Si](C)(C)C)ccc4ccc1c2c43 the emission maximum (in CCCCCC) was 380 nm, the emission maximum (in CO) was 380 nm and the emission maximum (in ClCCl) was 381 nm.

Work on N#Cc1c(C#N)c2cc(Cl)c(Cl)cc2c2cc(Cl)c(Cl)cc12 yielded an emission maximum (in ClC(Cl)Cl) of 412 nm.

Work on c1ccc(N(c2ccccc2)c2ccc3ccc4c(N(c5ccccc5)c5ccccc5)ccc5ccc2c3c54)cc1 yielded an emission maximum (in Cc1ccccc1) of 458 nm and an emission maximum (in ClCCl) of 472 nm.

In the case of CN(C)c1ccc2c(c1)C(C)(C)C1=CC(=[N+](C)C)C=CC1=C2C#Cc1ccccc1, the emission maximum (in CO) is reported as 705 nm and the emission maximum (in O) is reported as 708 nm.

Molecule N#Cc1c(N2c3ccccc3C(c3ccccc3)(c3ccccc3)c3ccccc32)cccc1N1c2ccccc2C(c2ccccc2)(c2ccccc2)c2ccccc21 has an emission maximum (in Cc1ccccc1) of 454 nm and an emission maximum (in O=P(c1ccccc1)(c1ccccc1)c1ccccc1Oc1ccccc1P(=O)(c1ccccc1)c1ccccc1) of 466 nm.

In the case of CCc1ccc(/C=N/c2cc(C(C)C)c(O)cc2C)cc1, the emission maximum (in C1CCCCC1) is reported as 406 nm, the emission maximum (in C1CCOC1) is reported as 412 nm and the emission maximum (in C1COCCO1) is reported as 410 nm. The emission maximum (in CC#N) was 421 nm, the emission maximum (in CC(C)(C)O) was 414 nm and the emission maximum (in CC(C)O) was 418 nm. It also gave an emission maximum (in CCCCCC) of 402 nm, an emission maximum (in CCCCO) of 420 nm and an emission maximum (in CCO) of 422 nm. For the same molecule, the emission maximum (in CCOC(C)=O) was 412 nm, the emission maximum (in CN(C)C=O) was 423 nm and the emission maximum (in CO) was 428 nm. The emission maximum (in CS(C)=O) was 431 nm, the emission maximum (in ClC(Cl)Cl) was 415 nm and the emission maximum (in ClCCl) was 420 nm. The emission maximum (in O) was 444 nm and the emission maximum (in OCCO) was 429 nm.

For COc1ccc(-c2c3nc(cc4ccc([nH]4)c(-c4ccc(OC)c(OCCCC(=O)O)c4)c4nc(cc5ccc2[nH]5)CC4)CC3)cc1OCCCC(=O)O, the emission maximum (in CS(C)=O) was 738 nm.

Molecule COC(=O)C1=C(C(=O)OC)C2(c3ccccc3-c3ccc([N+](=O)[O-])cc32)C2(/C=C/c3ccccc3)c3cc(OC)c(OC)cc3CCN12 (stereo unspecified) has an emission maximum (in ClCCl) of 510 nm.

Cc1ccc2c(c1)C1(c3ccccc3-c3ccccc31)c1cc(C)ccc1N2c1ccc2c(c1)Oc1ccccc1P2(=S)c1ccccc1 (stereo unspecified) showed an emission maximum (in Cc1ccccc1) of 443.09 nm.

With COc1ccc2c3ccc(OC)cc3n(-c3cc(Cl)c([C](c4c(Cl)cc(Cl)cc4Cl)c4c(Cl)cc(Cl)cc4Cl)c(Cl)c3)c2c1 the emission maximum (in C1CCCCC1) was 638 nm.

COc1nc(Cl)nc(Nc2ccc3c4cccc5cccc(c6cccc2c63)c54)n1 gave an emission maximum (in C1COCCO1) of 479 nm, an emission maximum (in CC#N) of 482 nm and an emission maximum (in CCCCOCCCC) of 477 nm. It also gave an emission maximum (in CCOC(C)=O) of 477 nm.

C(=C\c1cc(/C=C/c2ccc(-n3c4ccccc4c4ccccc43)cc2)cc(/C=C/c2ccc(-n3c4ccccc4c4ccccc43)cc2)c1)/c1ccc(-n2c3ccccc3c3ccccc32)cc1 gave an emission maximum (in C1CCOC1) of 403 nm, an emission maximum (in CC#N) of 429 nm and an emission maximum (in Cc1ccccc1) of 401 nm. For the same molecule, the emission maximum (in ClCCl) was 419 nm.

Molecule CN(C)c1cc(-c2ccc(C#Cc3ccccc3)cc2)cc2ccccc12 has an emission maximum (in CC#N) of 500.89 nm, an emission maximum (in CCO) of 471.6 nm and an emission maximum (in ClCCl) of 470 nm.

With Cc1ccc(/N=C2/C3=c4[nH]c5ccccc5c4=[N+](c4ccc(C)cc4)[B-](F)(F)N3c3ccccc32)cc1 the emission maximum (in ClCCl) was 756 nm.

Molecule COc1ccc(-c2cc3c(ccc4sc5ccc6sc(-c7ccc(C(C)=O)cc7)cc6c5c43)s2)cc1 has an emission maximum (in ClCCl) of 477 nm.

Work on CC1=[N+]2C(=C(c3cccs3)c3ccc(C)n3[B-]2(F)F)C=C1c1cc2n(c1)[B-](F)(F)[N+]1=CC=CC1=C2c1c(C)cc(C)cc1C yielded an emission maximum (in C1CCCCC1) of 650 nm and an emission maximum (in CCOC(C)=O) of 670 nm.

CC(C)c1cc(C(C)C)c(B2c3cc(N4c5ccccc5Oc5ccccc54)ccc3N(c3ccccc3)c3ccc(N4c5ccccc5Oc5ccccc54)cc32)c(C(C)C)c1 gave an emission maximum (in C1CCOC1) of 554.08 nm, an emission maximum (in CCOC(C)=O) of 546.26 nm and an emission maximum (in Cc1ccccc1) of 510.2 nm. The emission maximum (in ClCCl) was 546.26 nm and the emission maximum (in c1cc(-c2cccc(-n3c4ccccc4c4ccccc43)c2)cc(-n2c3ccccc3c3ccccc32)c1) was 512 nm.

CC(=O)c1cc2c(cc1F)NC(C)(C)CC2=O gave an emission maximum (in CC#N) of 417 nm and an emission maximum (in CCO) of 457 nm.

For CCCCCCCN1C(=CC2=C([O-])C(=Cc3sc4ccccc4[n+]3CCCCCCC)C2=C(C#N)C#N)Sc2ccccc21, the emission maximum (in C1COCCO1) was 723 nm, the emission maximum (in CCO) was 711 nm and the emission maximum (in CN(C)C=O) was 717 nm. For the same molecule, the emission maximum (in ClC(Cl)Cl) was 724 nm.

In the case of C[Si]1(C)O[Si](C)(C)c2cc3c(-c4ccccc4)c4ccccc4nc3cc21, the emission maximum (in ClCCl) is reported as 502 nm.

C[N+]1=C(/C=C/C=C2/N(CCCS(=O)(=O)[O-])c3ccccc3C2(C)C)C(C)(C)c2ccccc21 gave an emission maximum (in CS(C)=O) of 565 nm.

CCN(CC)c1ccc2c(C(F)(F)F)cc(=O)oc2c1 showed an emission maximum (in C1CCCCC1) of 433 nm, an emission maximum (in CC#N) of 501 nm and an emission maximum (in CCO) of 509 nm. It also gave an emission maximum (in CCOC(C)=O) of 479 nm and an emission maximum (in OCC(O)CO) of 524 nm.

Molecule O=C1OC(=O)C2=C1S[C@]13C2=C[C@H](c2ccccc21)c1ccccc13 has an emission maximum (in ClCCl) of 514 nm.

Molecule CCCn1c2cccc3oc4cccc5oc6cccc1c6[c+](c45)c32 has an emission maximum (in CC#N) of 560 nm.

With CC1(C)C(/C=C/c2cc3ccc(O)cc3oc2=O)=[N+](CCCS(=O)(=O)[O-])c2ccc(S(=O)(=O)O)cc21 the emission maximum (in CCO) was 648 nm, the emission maximum (in CS(C)=O) was 604 nm and the emission maximum (in O) was 636 nm.

Molecule CCCCN1C(=S)c2cccc3cccc(c23)C1=S has an emission maximum (in Cc1ccccc1) of 506 nm.

In the case of C[Si](C)(C)C#Cc1cccc2ccccc12, the emission maximum (in C1CCCCC1) is reported as 336 nm.

Molecule COCCC1=Cc2nc1ccc1[nH]c(cc1CCOC)c1nc(c(OC)cc3[nH]c2cc3CCOC)C(CCOC)=C1 has an emission maximum (in Cc1ccccc1) of 690 nm.

Molecule CC(C)(C)c1ccc(-c2cc3c4c(c2)CCc2cc(-c5ccc(C(C)(C)C)cc5)cc(c2-4)CC3)cc1 has an emission maximum (in C1CCCCC1) of 382.09 nm, an emission maximum (in C1CCOC1) of 384.87 nm and an emission maximum (in CC#N) of 383.16 nm. The emission maximum (in CCCCCC) was 381.02 nm, the emission maximum (in CCO) was 382.73 nm and the emission maximum (in CN(C)C=O) was 386.79 nm. The emission maximum (in CO) was 381.87 nm, the emission maximum (in ClC(Cl)Cl) was 387.93 nm and the emission maximum (in ClCCl) was 386.36 nm.

In the case of c1ccc(-c2ccc(-c3cc(-c4ccc(-c5ccccc5)cc4)cc(-c4ccc(-c5ccccc5)cc4)c3)cc2)cc1, the emission maximum (in C1COCCO1) is reported as 364 nm.

For Cn1cc(/C=C/C(=O)c2ccccc2)c2ccccc21, the emission maximum (in CC#N) was 419.32 nm and the emission maximum (in CO) was 446.19 nm.

Work on CC(C)(C)c1ccc(-c2c3cccc4c(-c5ccccc5)cc5c(-c6ccc(C(C)(C)C)cc6)c6cccc7c(-c8ccccc8)cc2c(c76)c5c43)cc1 yielded an emission maximum (in ClCCl) of 465 nm.

Molecule COC(=O)COc1ccc(/C=C/C2=[N+]3C(=C(c4ccccc4)c4c(C)cc(C)n4[B-]3(F)F)C(C)=C2)cc1 has an emission maximum (in CO) of 574 nm.

Cn1c(=O)c(-c2ccccc2)nc2ccccc21 gave an emission maximum (in c1ccccc1) of 424 nm.

Work on CC(C)(C)c1ccc(-c2ccc3c(-c4ccc(C(C)(C)C)c5ccccc45)cc4c5cc(-c6ccc(C(C)(C)C)c7ccccc67)ccc5c(-c5ccc(C(C)(C)C)c6ccccc56)cc4c3c2)c2ccccc12 yielded an emission maximum (in ClCCl) of 405 nm.

With CCCCCCOc1cc(/C=C/c2cc(OCCCCCC)c(/C=C/c3cc(OCCCCCC)c(/C=C4\C(=O)c5ccccc5C4=C(C#N)C#N)cc3OCCCCCC)cc2OCCCCCC)c(OCCCCCC)cc1/C=C1\C(=O)c2ccccc2C1=C(C#N)C#N the emission maximum (in ClCCl) was 765 nm.

For CN(C)c1cc(-c2ccccc2)cc2ccccc12, the emission maximum (in ClCCl) was 422 nm.

COc1cc(/C=C/c2nc3ccccc3o2)c(OC)cc1/C=C/c1nc(C)nc(/C=C/c2cc(OC)c(/C=C/c3nc4ccccc4o3)cc2OC)n1 showed an emission maximum (in C1CCOC1) of 487 nm, an emission maximum (in CC#N) of 502 nm and an emission maximum (in ClC(Cl)Cl) of 494 nm. For the same molecule, the emission maximum (in ClCCl) was 496 nm.

Work on COc1nc(Cl)nc(Nc2ccc3c4c(cccc24)C(=O)c2ccccc2-3)n1 yielded an emission maximum (in CC#N) of 537.92 nm, an emission maximum (in CC(C)=O) of 526.87 nm and an emission maximum (in CC(C)O) of 570.13 nm. The emission maximum (in CCCCOCCCC) was 507.1 nm, the emission maximum (in CCOC(C)=O) was 520.02 nm and the emission maximum (in CCOCC) was 514.14 nm. For the same molecule, the emission maximum (in CO) was 578.03 nm, the emission maximum (in Cc1ccccc1) was 518.13 nm and the emission maximum (in Clc1ccccc1) was 524.93 nm. The emission maximum (in N#Cc1ccccc1) was 526.04 nm and the emission maximum (in O=C1CCCCC1) was 524.11 nm.

In the case of CC1=[N+]2C(=C(c3ccc(N4CCCCC4)cc3)c3ccc(C)n3[B-]2(F)F)C=C1, the emission maximum (in C1CCCCC1) is reported as 519 nm, the emission maximum (in C1CCOC1) is reported as 527 nm and 514 nm and the emission maximum (in CC#N) is reported as 519 nm. For the same molecule, the emission maximum (in CC(=O)C(C)(C)C) was 523 nm, the emission maximum (in CC(C)=O) was 517 nm and the emission maximum (in CCCCCC) was 520 nm. It also gave an emission maximum (in CCOC(C)=O) of 518 nm, an emission maximum (in CO) of 518 nm and an emission maximum (in Cc1ccccc1) of 593 nm. For the same molecule, the emission maximum (in ClC(Cl)Cl) was 527 nm.

Work on Nc1ccc2c3c(cccc13)C(=O)c1ccccc1-2 yielded an emission maximum (in CC#N) of 626.17 nm, an emission maximum (in CC(C)=O) of 610.13 nm and an emission maximum (in CC(C)O) of 664.89 nm. The emission maximum (in CCCCOCCCC) was 570.13 nm, the emission maximum (in CCOC(C)=O) was 592.07 nm and the emission maximum (in CCOCC) was 585.14 nm. It also gave an emission maximum (in CO) of 667.11 nm, an emission maximum (in Cc1ccccc1) of 569.15 nm and an emission maximum (in Clc1ccccc1) of 579.04 nm. The emission maximum (in N#Cc1ccccc1) was 610.13 nm and the emission maximum (in O=C1CCCCC1) was 610.13 nm.

In the case of CC[n+]1c(C=C2C(=O)C(C=C3N(C)c4ccc(Cl)cc4C3(C)C)=C2[O-])sc2ccccc21, the emission maximum (in CO) is reported as 653 nm and the emission maximum (in ClC(Cl)Cl) is reported as 664 nm.
